In one assay the target is ERα_LBD(GST) (Homo sapiens (Human), UniProt P03372). Description: LanthaScreen TR-FRET ERα competitive binding assay. Conditions: read-out: ERα HTRF IC50. As for the experimental part:
• 1. ERα_LBD(GST) protein: 4 nM • 2. Tb Anti-GST: 2 nM • 3. Fluormone ES2 Green tracer: 3 nM • 4. Incubation time: 60 min • 5. DMSO: 1% • 6. Assay buffer: Adding 1M DTT to Nuclear receptor Buffer K for final 5 mM DTT. • 7. ZPE: 1% DMSO • 8. HPE: 1 μM ARV_471 • 9. LanthaScreen® TR-FRET ERα Competitive Binding Assay (ThermoFisher, #A15887)
• 1) Cherry pick 2 μL 10 mM compound stock to column 1 of a 384 intermediate plate • 2) Add 18 μL DMSO to column 1 to dilute compound to 1 mM. • 3) Transfer 10 μL 1 mM compound to column 1 of a LDV plate. • 2) Add 6 μl DMSO to column 2-10 of the LDV plate. • 3) Compounds undergo 3-fold serial dilution (3 μL+6 μL) in DMSO. • 4) Transfer 120 nL compound solution to assay plate. • ZPE: 120 nL 100% DMSO
Prepare complete nuclear receptor buffer K by adding 1 M DTT to nuclear receptor buffer K for a final concentration of 5 mM DTT. Complete nuclear receptor buffer K must be prepared fresh daily. Prepare 2× protein solution using complete nuclear receptor buffer K containing 8 nM ERα_LBD(GST) and 4 nM Tb Anti-GST. Then, prepare 2× Fluormone ES2 Green tracer (6 nM) using complete nuclear receptor buffer K. Add 6 μL 2× Fluormone ES2 green tracer into a compound plate (PerkinElmer 6008289) by dragonfly with one-tips-addition. Subsequently, add 6 μL 2× protein solution into the plate. Briefly and gently mix the 384-well plate on a plate shaker and incubate at room temperature protected from light for 60 min. The plate is sealed with a cover to minimize evaporation. Read the plate at wavelengths of 520 nm and 495 nm. Calculate the TR-FRET ratio by dividing the emission signal at 520 nm by the emission signal at 495 nm. Generate a binding curve by plotting the emission ratio vs. the log [ligand]. To determine the IC50 value, fit the data using XL-fit for a sigmoidal dose-response.
A general note: Time-resolved FRET reads energy transfer from a long-lived donor to a nearby acceptor.

Assay [1] concerns the target T1, ER (Homo sapiens (Human), UniProt P03372). Description: In-cell western (ICW) ER degradation assay in MCF-7 cells. Conditions: MCF7, 16 hrs; for DC50: ER degradation; for Dmax: MCF7, maximal ER degradation; for MCF7 Dmax %: maximal ER degradation. Format: cell-based.
Assay [2] addresses T1, ER. Description: In-cell western (ICW) ER degradation assay in T47D cells. It is filed as cell-based. Conditions: 16 hrs; for DC50: ER degradation; for Dmax / T47D Dmax %: maximal ER degradation.
Another assay has as its target CRBN/DDB1 (Homo sapiens (Human), UniProt Q96SW2). In words: HTRF binding assay to CRBN/DDB1. Conditions: read-out: CRBN HTRF IC50. On the procedure:
The binding potency was determined using HTRF assay technology (Perkin Elmer). Compounds were serially diluted in DMSO and 0.2 μL volume was transferred to white 384-well plate.

The source of these data is patent publication US20260000676A1, “CHROMAN DERIVATIVES AS ESTROGEN RECEPTOR DEGRADERS” (THE REGENTS OF THE UNIVERSITY OF MICHIGAN, priority 2022, published 2026).

T1 sequence (P03372 whole entry): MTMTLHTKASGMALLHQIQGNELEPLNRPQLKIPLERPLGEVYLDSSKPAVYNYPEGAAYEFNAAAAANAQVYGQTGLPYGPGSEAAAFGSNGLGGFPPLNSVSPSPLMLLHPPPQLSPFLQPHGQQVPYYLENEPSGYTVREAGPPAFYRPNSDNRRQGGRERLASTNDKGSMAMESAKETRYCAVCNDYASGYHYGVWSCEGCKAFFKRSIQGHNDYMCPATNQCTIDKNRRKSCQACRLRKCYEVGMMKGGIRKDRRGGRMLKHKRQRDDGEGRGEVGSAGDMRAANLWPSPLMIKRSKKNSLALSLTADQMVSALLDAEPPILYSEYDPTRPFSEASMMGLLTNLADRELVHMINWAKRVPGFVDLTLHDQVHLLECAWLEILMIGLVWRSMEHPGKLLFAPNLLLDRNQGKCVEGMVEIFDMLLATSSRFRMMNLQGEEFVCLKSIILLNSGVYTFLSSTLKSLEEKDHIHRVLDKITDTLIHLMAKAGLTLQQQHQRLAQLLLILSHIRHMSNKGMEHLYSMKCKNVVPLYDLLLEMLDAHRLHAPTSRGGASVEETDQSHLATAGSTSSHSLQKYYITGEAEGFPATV
Sequence of ERα_LBD(GST) (P03372 311-547): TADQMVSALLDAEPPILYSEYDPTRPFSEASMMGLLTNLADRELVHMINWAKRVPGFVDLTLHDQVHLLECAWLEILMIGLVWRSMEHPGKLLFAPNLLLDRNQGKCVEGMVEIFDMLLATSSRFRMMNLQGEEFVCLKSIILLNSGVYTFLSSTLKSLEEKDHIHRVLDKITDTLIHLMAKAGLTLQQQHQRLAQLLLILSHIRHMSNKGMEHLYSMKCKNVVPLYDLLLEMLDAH
Sequence of CRBN/DDB1 (Q96SW2 whole entry): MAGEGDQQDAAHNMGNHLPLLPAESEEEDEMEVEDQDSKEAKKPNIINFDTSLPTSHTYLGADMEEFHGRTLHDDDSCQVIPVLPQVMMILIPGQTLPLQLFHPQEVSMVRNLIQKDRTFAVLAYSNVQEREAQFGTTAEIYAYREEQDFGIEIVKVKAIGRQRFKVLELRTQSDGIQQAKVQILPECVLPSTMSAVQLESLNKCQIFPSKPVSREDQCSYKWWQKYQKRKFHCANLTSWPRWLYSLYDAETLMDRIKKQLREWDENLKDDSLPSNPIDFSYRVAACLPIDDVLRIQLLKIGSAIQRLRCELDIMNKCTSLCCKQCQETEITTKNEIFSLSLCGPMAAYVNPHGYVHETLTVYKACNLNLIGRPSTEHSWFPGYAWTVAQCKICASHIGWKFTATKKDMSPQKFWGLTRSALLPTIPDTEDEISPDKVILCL
Sequence of CRBN/DDB1 (Q16531 whole entry partner): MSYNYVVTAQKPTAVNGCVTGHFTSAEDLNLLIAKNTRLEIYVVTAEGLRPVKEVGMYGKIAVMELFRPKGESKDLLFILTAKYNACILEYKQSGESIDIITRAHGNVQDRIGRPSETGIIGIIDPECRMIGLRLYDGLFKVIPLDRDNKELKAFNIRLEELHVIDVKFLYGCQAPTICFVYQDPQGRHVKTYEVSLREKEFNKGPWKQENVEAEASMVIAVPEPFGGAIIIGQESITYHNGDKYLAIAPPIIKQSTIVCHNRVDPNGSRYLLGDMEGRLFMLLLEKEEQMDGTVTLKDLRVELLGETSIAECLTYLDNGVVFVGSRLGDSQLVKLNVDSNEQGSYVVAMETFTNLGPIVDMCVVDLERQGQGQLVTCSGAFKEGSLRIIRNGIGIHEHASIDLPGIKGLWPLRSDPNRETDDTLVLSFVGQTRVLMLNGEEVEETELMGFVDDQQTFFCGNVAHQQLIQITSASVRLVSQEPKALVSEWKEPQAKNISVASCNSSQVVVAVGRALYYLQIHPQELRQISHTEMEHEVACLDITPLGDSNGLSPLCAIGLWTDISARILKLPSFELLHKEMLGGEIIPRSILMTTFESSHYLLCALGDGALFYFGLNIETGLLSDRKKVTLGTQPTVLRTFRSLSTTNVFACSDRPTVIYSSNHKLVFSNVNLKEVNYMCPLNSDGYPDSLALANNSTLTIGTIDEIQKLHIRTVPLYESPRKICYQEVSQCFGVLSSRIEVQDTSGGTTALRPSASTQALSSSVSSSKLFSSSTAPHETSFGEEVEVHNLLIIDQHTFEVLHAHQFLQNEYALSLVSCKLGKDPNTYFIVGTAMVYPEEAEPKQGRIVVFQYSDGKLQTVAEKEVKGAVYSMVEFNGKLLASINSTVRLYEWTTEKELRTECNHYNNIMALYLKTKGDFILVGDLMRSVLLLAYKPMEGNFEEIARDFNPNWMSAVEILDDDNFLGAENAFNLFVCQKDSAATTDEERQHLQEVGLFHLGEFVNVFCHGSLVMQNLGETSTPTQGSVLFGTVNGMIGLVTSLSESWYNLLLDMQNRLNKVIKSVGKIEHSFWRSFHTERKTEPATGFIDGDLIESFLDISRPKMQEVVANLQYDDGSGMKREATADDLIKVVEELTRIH

A word on the IC50: it is the point on the concentration scale where inhibition reaches its midpoint. As usually defined, the DC50 is the midpoint of the concentration-degradation curve. Lower therefore signals a more potent degrader. In general, Dmax refers to the largest share of the target that was removed. A higher Dmax goes with a fuller loss of target. For the compound `O=C1CC[C@@H](N2Cc3cc4c(cc3C2=O)OCC42CCN(CC3CCC4(CC3)CN(c3ccc([C@H]5c6ccc(O)cc6OC[C@H]5c5ccccc5)cc3)C4)CC2)C(=O)N1` [Compound A153, (R)-3-(1′-((2-(4-((3R,4S)-7-hydroxy-3-phenylchroman-4-yl)phenyl)-2-azaspiro[3.5]nonan-7-yl)methyl)-7-oxo-5,7-dihydro-2H,6H-spiro[furo[2,3-f]isoindole-3,4′-piperidin]-6-yl)piperidine-2,6-dione], on ERα_LBD(GST), the IC50 is less than 5 nM. In addition, at ER [1], the DC50 is less than 1 nM and the Dmax was 50 to 75%. On ER [2], this compound came in with a DC50 of less than 1 nM and a Dmax of no less than 75%.
For the compound `COc1cc(N2CCC3(CC2)CC(CN2CCN4c5ccc6c(c5OC[C@@H]4C2)CN([C@@H]2CCC(=O)NC2=O)C6=O)C3)c(F)cc1[C@@H]1c2ccc(O)cc2OC[C@@H]1c1ccccc1` (single isomer, unassigned) [Compound A125], at ERα_LBD(GST), the IC50 was less than 5 nM. Moreover, the DC50 at ER [1] and on ER [2] was less than 1 nM throughout. Moreover, the greatest degradation seen (Dmax) at ER [1] and on ER [2] was no less than 75% in each case.
Take `COc1cc(N2CCC(CN3CCN4c5cc6c(cc5OC[C@H]4C3)C(=O)N([C@@H]3CCC(=O)NC3=O)C6)CC2)ccc1[C@H]1c2ccc(O)cc2OC[C@H]1c1ccccc1` (single isomer, unassigned) [Compound A122]: the IC50 on ERα_LBD(GST) was less than 5 nM. For the same compound, on ER [1], the DC50 was less than 1 nM and the Dmax was no less than 75%. Moreover, at ER [2], the DC50 was less than 1 nM and the Dmax was no less than 75%.
`O=C1CCC(N2Cc3c(ccc4c3OC[C@H]3CN(CC5CCN(c6ccc([C@@H]7c8ccc(O)cc8OC[C@@H]7c7ccccc7)cc6)CC5)CCN43)C2=O)C(=O)N1` (single isomer, unassigned) [Compound A8, 3-((R)-7-((1-(4-((3S,4R)-7-hydroxy-3-phenylchroman-4-yl)phenyl)piperidin-4-yl)methyl)-1-oxo-1,3,5,5a,6,7,8,9-octahydro-2H-pyrazino[1′,2′:4,5][1,4]oxazino[2,3-e]isoindol-2-yl)piperidine-2,6-dione]: the IC50 on ERα_LBD(GST) was less than 5 nM. In addition, the Dmax at ER [1] is 50 to 75%.
As to `COc1cc(N2CCC(CN3CCN4c5ccc6c(c5OC[C@@H]4C3)CN([C@@H]3CCC(=O)NC3=O)C6=O)CC2)ccc1[C@H]1c2ccc(O)cc2OC[C@H]1c1ccccc1` (single isomer, unassigned) [Compound A121], at ERα_LBD(GST), the IC50 was less than 5 nM. The Dmax at ER [1] and at ER [2] was no less than 75% in each case.
On to `COc1cc(N2CCC(CN3CCN4c5ccc6c(c5OC[C@@H]4C3)CN([C@@H]3CCC(=O)NC3=O)C6=O)CC2)c(F)cc1[C@@H]1c2ccc(O)cc2OC[C@@H]1c1ccccc1` (single isomer, unassigned) [Compound A106], for which, at ERα_LBD(GST), the IC50 is less than 5 nM. Further, the DC50 on ER [1] and at ER [2] was less than 1 nM throughout. The maximal degradation (Dmax) on ER [1] and at ER [2] was no less than 75% throughout.
For the compound `O=C1CCC(N2Cc3c(ccc4c3OC[C@H]3CN(CC5CCN(c6ccc([C@@H]7c8ccc(O)cc8OC[C@@H]7c7ccccc7)cc6F)CC5)CCN43)C2=O)C(=O)N1` (single isomer, unassigned) [Compound A9, 3-((R)-7-((1-(2-fluoro-4-((3S,4R)-7-hydroxy-3-phenylchroman-4-yl)phenyl)piperidin-4-yl)methyl)-1-oxo-1,3,5,5a,6,7,8,9-octahydro-2H-pyrazino[1′,2′:4,5][1,4]oxazino[2,3-e]isoindol-2-yl)piperidine-2,6-dione], at ERα_LBD(GST), the IC50 was less than 5 nM. On ER [1], this compound showed a Dmax of 50 to 75%.
`COc1cc(N2CCC(CN3CCN4c5cc6c(cc5OC[C@H]4C3)C(=O)N(C3CCC(=O)NC3=O)C6)CC2)ccc1[C@@H]1c2ccc(O)cc2OC[C@@H]1c1ccccc1` (single isomer, unassigned) [Compound A84]: on ERα_LBD(GST), the IC50 was less than 5 nM. Besides, the Dmax at ER [1] and at ER [2] was 50 to 75% each time.
As to `O=C1CCC(N2Cc3cc4c(cc3C2=O)OC[C@@H]2CN(CC3CC5(CCN(c6ccc([C@H]7c8ccc(O)cc8OC[C@H]7c7ccccc7)cc6)CC5)C3)CCN42)C(=O)N1` (single isomer, unassigned) [Compound A27], the IC50 at ERα_LBD(GST) was less than 5 nM. In addition, the Dmax on ER [1] was 50 to 75%.
As for `O=C1CCC(N2Cc3cc(N4CCN(CC5CC6(CCN(c7ccc([C@@H]8c9ccc(O)cc9OC[C@@H]8c8ccccc8)cn7)CC6)C5)CC4)ccc3C2=O)C(=O)N1` (single isomer, unassigned) [Compound A68], the half-inhibitory concentration (IC50) on ERα_LBD(GST) is less than 5 nM. Moreover, on ER [1], the DC50 is 1 to 10 nM; the “MCF7 Dmax %” value was “B (“B”: >50% and <75%)”. In addition, on ER [2], the DC50 was in the range of 1 to 10 nM and the “T47D Dmax %” value is given as “A (“A”; >=75%)”.
Consider `O=C1CCC(N2C(=O)c3cc4c(cc3C2=O)CN(CC(=O)N2CC3(CCN(c5ccc([C@@H]6c7ccc(O)cc7OC[C@@H]6c6ccccc6)cc5)CC3)C2)C4)C(=O)N1` (single isomer, unassigned) [Compound A26], for which the 50% inhibitory concentration (IC50) at CRBN/DDB1 is 50 to 500 nM; at ERα_LBD(GST), less than 5 nM.
In the case of `O=C1CCC(N2Cc3cc4c(cc3C2=O)OCC42CCN(CC3CCC4(CC3)CN(c3ccc([C@H]5c6ccc(O)cc6OC[C@H]5c5ccccc5)cc3)C4)CC2)C(=O)N1` (stereo partly drawn) [Compound A99, 3-(1′-((2-(4-((3R,4S)-7-hydroxy-3-phenylchroman-4-yl)phenyl)-2-azaspiro[3.5]nonan-7-yl)methyl)-7-oxo-5,7-dihydro-2H,6H-spiro[furo[2,3-f]isoindole-3,4′-piperidin]-6-yl)piperidine-2,6-dione], on ERα_LBD(GST), the IC50 was less than 5 nM. On ER [1], this compound showed a DC50 of less than 1 nM and a Dmax of 50 to 75%. Further, on ER [2], the DC50 was less than 1 nM and the Dmax is 50 to 75%.
As to `O=C1CCC(N2Cc3c(ccc4c3OC[C@H]3CN(CC5CC6(CCN(c7ccc([C@@H]8c9ccc(O)cc9OC[C@@H]8c8ccccc8)cn7)CC6)C5)CCN43)C2=O)C(=O)N1` (single isomer, unassigned) [Compound A66], the IC50 on ERα_LBD(GST) was no less than 5 nM. Besides, at ER [1], the DC50 is 1 to 10 nM; the “MCF7 Dmax %” value was “B (“B”: >50% and <75%)”. Besides, on ER [2], the 50% degradation concentration (DC50) lay in the range of 1 to 10 nM; the “T47D Dmax %” value was “B (“B”: >50% and <75%)”.
With `O=C1CC[C@H](N2Cc3cc4c(cc3C2=O)OC[C@@H]2CN(CC3CC5(CCN(c6ccc([C@@H]7c8ccc(O)cc8OC[C@@H]7c7ccccc7)cc6)CC5)C3)CCN42)C(=O)N1` (single isomer, unassigned) [Compound A59], on ERα_LBD(GST), the IC50 is less than 5 nM. Also, on ER [1], the DC50 fell in the range of 1 to 10 nM and the Dmax fell in the range of 50 to 75%. Moreover, on ER [2], the DC50 was less than 1 nM and the Dmax was no less than 75%.
With `O=C1CC[C@@H](N2Cc3c(ccc4c3OC[C@@H]3CN(C[C@@H]5COC6(CCN(c7ccc([C@H]8c9ccc(O)cc9OC[C@H]8c8ccccc8)cc7)CC6)C5)CCN43)C2=O)C(=O)N1` (single isomer, unassigned) [Compound A132], on ERα_LBD(GST), the IC50 was less than 5 nM. For the same compound, on ER [1], the DC50 is 1 to 10 nM and the Dmax lay in the range of 50 to 75%. At ER [2], this compound came in with a DC50 of 1 to 10 nM and a maximal degradation (Dmax) of 50 to 75%.
On to `O=C1CCC(N2C(=O)c3cc4c(cc3C2=O)CN(CC(=O)N2CCC3(CC2)CCN(c2ccc([C@H]5c6ccc(O)cc6OC[C@H]5c5ccccc5)cc2)CC3)C4)C(=O)N1` (stereo partly drawn) [Compound A40, 2-(2,6-dioxopiperidin-3-yl)-6-(2-(9-(4-((3R,4S)-7-hydroxy-3-phenylchroman-4-yl)phenyl)-3,9-diazaspiro[5.5]undecan-3-yl)-2-oxoethyl)-6,7-dihydropyrrolo[3,4-f]isoindole-1,3(2H,5H)-dione], for which the IC50 on ERα_LBD(GST) was no less than 5 nM. On ER [1], this compound came in with a DC50 of 1 to 10 nM and a Dmax of 50 to 75%. At ER [2], this compound had a DC50 of less than 1 nM and a Dmax of 50 to 75%.
